One substance from patent publication US10172916B2, “Methods of treating heart failure with agonists of hypocretin receptor 2” (The Board of Trustees of the Leland Stanford Junior …, priority 2013, dated 2019) can be followed below.

Ends that are not written are not given here.

The experiment relates to wild-type C57BL/6 mice stressed with angiotensin II+isoproterenol infusion (heart failure model). Kind of experiment: Orexin A minipump infusion in mice stressed with angiotensin II + isoproterenol, echocardiography. In kind it is in vivo, mouse. How it is done: Finally, to assess the potential of HCRTR2 as a novel therapeutic target for heart failure, wild-type mice were infused with saline (n=6) or the HCRTR2 agonist orexin A (n=7) for four weeks. At week two, all mice underwent infusion of angiotensin II and isoproterenol, neurohormones that mimic human heart failure. Echocardiography was performed blinded to drug infusion status at baseline, 2, 3 and 4 weeks (FIG. 3H).
Experimental mice were anesthetized with 1.5% isoflurane by a facemask. The Alzet osmotic minipumps (Model 2002 or 2004) from the Alzet Corporation (Cupertino, Calif., USA) were implanted subcutaneously in the back of mice, posterior to the scapulae. 14-week-old C57BL/6 mice were treated with either saline or orexin A (50 μg/kg/day) infusions using an Alzet (Cupertino, Calif.) osmotic minipump model 2004 (200 μl reservoir, 28-day release at 0.25 μl/hr) for a total of 4 weeks. At week 2, all mice were treated with angiotensin II (1.4 mg/kg/day) plus isoproterenol (15 mg/kg/day) infusion using an additional Alzet osmotic minipump, model 2002 (200 μl reservoir, 14-day release at 0.5 μl/hr) for two weeks, starting 2 weeks after initiation of the saline or orexin A infusion. Mice had echocardiography performed at baseline and weeks 2, 3 and 4.
For noninvasive echocardiography, mice were anesthetized with isoflurane via nose cone (maintenance: 1.5% isoflurane mixed with 1 L/minute 100% medical oxygen to obtain heart rate of 450±50 beats per minute). Mouse body temperature was monitored with a rectal thermometer. […]
Two-dimensional imaging (B-mode) was used to obtain a view of left and right ventricular movement during diastole and systole along the parasternal short axis. […] Early (E) wave was measured as the peak velocity during filling of the ventricle, and atrial (A) wave was measured as the peak velocity during atrial contraction, at the end of diastole. […] All data and images were saved and analyzed using a Vevo 2100 advanced cardiovascular package software with a semi-automated quantification of cardiac function (V 1.4.0 VisualSonics, Toronto, ON, Canada).

Turning to “orexin A (QPLPDCCRQKTCSCRLYELLHGAGNHAAGILTL; ends and bridges not checked; cysteine pairing not given here; UniProt O43612 34-66, looked up) [HCRTR2 agonist]”, the “Ejection Fraction” value (WT mice, orexin A 50 μg/kg/day infusion for 4 weeks, angiotensin II+isoproterenol during latter 2 weeks, week 4, n=7, p=0.045 vs saline) is reported as 56.6%+/−4.5. In addition, the “heart function in a mouse model of heart failure” value (summary statement) is on record as “successful in rescuing heart function”. For the same substance, under “wild-type mice, four weeks infusion, angiotensin II and isoproterenol from week two, p=0.045”, the “systolic function compared to saline controls” value is listed as “better systolic function compared to controls”.
